The target in one test is T1, Somatostatin sst1 (Homo sapiens, UniProt P30872).
T1 construct: host or cells: CHO-K1
Put plainly: Somatostatin sst1 radioligand binding assay. The settings on record: for % inh / inhibition at 10 µM: Conc 10 μM. The method, then: (§1) Compounds of the present invention were assessed for their binding affinity to sst1, sst3, and sst4 receptors by biochemical and radioligand assay according to the following procedures. The assays were conducted by MDS Pharma Services—Taiwan Ltd., Pharmacology Laboratories, 158 Li-The Road, Peitou, Taipei, Taiwan 112, R.O.C.
The protocol for sstl assay was adapted from Liapakis, G., Fitzpatrick, D., Hoeger, C., Rivier, J., Vandlen, R. and Reisine, T. (1996) “Identification of ligand binding determinants in the somatostatin receptor subtypes 1 and 2.”J. Biol. Chem. 271(24): 20331-20339, 1996; and Patel, Y. C. and Srikant, C. B. (1994) “Subtype selectivity of peptide analogs for all five cloned human somatostatin receptors (hsstr 1-5).” Endocrinology 135 (6): 2814-2817, 1994. The protocol were and can be conducted according to the following conditions.
(§2) IC50 values were determined by a non-linear, least squares regression analysis using Data Analysis Toolbox™ (MDL Information Systems, San Leandro, Calif., USA). Where inhibition constants (Ki) are presented, the Ki values were calculated using the equation of Cheng and Prusoff (Cheng, Y., Prusoff, W. H., Biochem. Pharmacol. 22:3099-3108, 1973) using the observed IC50 of the tested compound, the concentration of the radioligand employed in the assay, and the historical values for the Kd of the ligand (obtained experimentally at MDS Pharma Services). Where presented, the Hill coefficient (nH), defining the slope of the competitive binding curve, was calculated using Data Analysis Toolbox™. […] Where IC50, Ki and/or nH data are presented without Standard Error of the Mean (SEM), data are insufficient to be quantitative, and the values presented (Ki, IC50, nH) should be interpreted accordingly.

For the next test, the target named is T2, Somatostatin sst4 (Homo sapiens, UniProt P31391).
T2 construct: host or cells: CHO-K1
T2 sequence (P31391 whole entry): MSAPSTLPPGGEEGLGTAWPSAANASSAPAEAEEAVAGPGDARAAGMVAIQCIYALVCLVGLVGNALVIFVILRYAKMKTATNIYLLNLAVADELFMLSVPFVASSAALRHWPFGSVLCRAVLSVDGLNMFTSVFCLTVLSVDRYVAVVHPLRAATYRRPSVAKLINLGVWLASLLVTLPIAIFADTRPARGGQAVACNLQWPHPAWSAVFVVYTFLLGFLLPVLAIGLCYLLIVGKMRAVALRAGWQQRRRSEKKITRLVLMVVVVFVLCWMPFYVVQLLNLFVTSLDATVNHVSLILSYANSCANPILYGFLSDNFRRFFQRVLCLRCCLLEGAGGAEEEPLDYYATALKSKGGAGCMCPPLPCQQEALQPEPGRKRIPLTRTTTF
Put plainly: Somatostatin sst4 radioligand binding assay. The note with it: for % inh / inhibition at 10 µM: Conc 10 μM (Conc not given in some rows). On the procedure: as §1
The protocol for sst4 assay was adapted from Patel, Y. C. and Srikant, C. B. (1994) “Subtype selectivity of peptide analogs for all five cloned human somatostatin receptors (hsstr 1-5).” Endocrinology 135 (6): 2814-2817, 1994. The protocol were and can be conducted according to the following conditions.
as §2

A further test addresses T3, Somatostatin sst 3 (Homo sapiens, UniProt P32745).
T3 construct: host or cells: CHO-K1
Kind of test: Somatostatin sst3 radioligand binding assay. The settings on record: for % inh / inhibition at 10 µM: Conc 10 μM (Conc not given in some rows). The method, then:
as §1
The protocol for sst3 assay was adapted from Liapakis, G., Fitzpatrick, D., Hoeger, C., Rivier, J., Vandlen, R. and Reisine, T. (1996) “Identification of ligand binding determinants in the somatostatin receptor subtypes 1 and 2.”J. Biol. Chem. 271(24): 20331-20339, 1996; and Patel, Y. C. and Srikant, C. B. (1994) “Subtype selectivity of peptide analogs for all five cloned human somatostatin receptors (hsstr 1-5).” Endocrinology 135 (6): 2814-2817, 1994. The protocol were and can be conducted according to the following conditions.
as §2

Another test concerns the target T4, Sst5 (Cavia porcellus, UniProt H0W1F1).
T4 sequence (H0W1F1 1-365): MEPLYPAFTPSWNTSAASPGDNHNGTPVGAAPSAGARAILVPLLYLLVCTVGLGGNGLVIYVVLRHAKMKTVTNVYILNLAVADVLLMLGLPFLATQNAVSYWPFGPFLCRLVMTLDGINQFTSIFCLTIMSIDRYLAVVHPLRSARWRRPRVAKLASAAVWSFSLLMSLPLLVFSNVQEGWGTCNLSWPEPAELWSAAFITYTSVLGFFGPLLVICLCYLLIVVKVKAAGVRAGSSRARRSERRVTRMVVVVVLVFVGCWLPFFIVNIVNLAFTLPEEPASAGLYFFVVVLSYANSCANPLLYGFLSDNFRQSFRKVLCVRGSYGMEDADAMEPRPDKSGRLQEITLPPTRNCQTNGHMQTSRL
Put plainly: Sst5 (functional) assay, Vas def gp. The settings on record: Table 4, Conc 30 μM; for activation at 30 µM: read-out: % Ag.

The mark [1] stands for this setting: Hill coefficient of competitive binding curve.

As usually defined, the IC50 is the concentration at which inhibition is half-maximal. Lower therefore signals greater potency. Usually Ki stands for the dissociation constant of the complex between target and ligand, obtained from inhibition or displacement. A lower Ki goes with higher affinity.

Where “and” joins values, the source holds several entries; their conditions need not be identical. Identical values can stand only once. Like-named read-outs stand apart in the source and are kept apart here.

T1 sequence (P30872 whole entry): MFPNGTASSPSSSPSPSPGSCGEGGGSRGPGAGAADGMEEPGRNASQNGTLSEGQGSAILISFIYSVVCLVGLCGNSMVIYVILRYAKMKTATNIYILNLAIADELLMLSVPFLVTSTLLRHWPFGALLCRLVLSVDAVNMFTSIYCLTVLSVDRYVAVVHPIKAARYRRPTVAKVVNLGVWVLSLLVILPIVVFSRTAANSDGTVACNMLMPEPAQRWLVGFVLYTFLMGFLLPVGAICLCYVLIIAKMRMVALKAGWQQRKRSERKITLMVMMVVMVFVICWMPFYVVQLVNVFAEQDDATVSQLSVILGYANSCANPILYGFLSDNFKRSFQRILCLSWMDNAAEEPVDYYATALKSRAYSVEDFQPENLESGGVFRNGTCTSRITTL
T3 sequence (P32745 whole entry): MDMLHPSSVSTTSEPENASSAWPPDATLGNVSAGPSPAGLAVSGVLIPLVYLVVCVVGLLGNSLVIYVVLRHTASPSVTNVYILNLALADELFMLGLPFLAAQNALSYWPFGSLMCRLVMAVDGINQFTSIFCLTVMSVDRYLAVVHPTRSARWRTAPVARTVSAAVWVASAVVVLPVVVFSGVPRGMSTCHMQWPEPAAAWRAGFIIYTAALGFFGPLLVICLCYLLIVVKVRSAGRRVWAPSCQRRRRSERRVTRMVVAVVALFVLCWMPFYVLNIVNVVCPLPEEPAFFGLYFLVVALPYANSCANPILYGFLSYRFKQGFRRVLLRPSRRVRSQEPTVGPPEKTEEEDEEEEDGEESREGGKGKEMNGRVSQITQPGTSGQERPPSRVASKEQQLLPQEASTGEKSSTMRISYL

For “7-Phenoxy-3′-4′-dihydro-2H-quinoline 1-(methylpiperidine-4-yl)-4-spiro-5′-1′-(1H-indole-3yl-methyl)-3′-methyl-imidazoline-2′-4′-dione”, the nH turned out to be 1.16 at Somatostatin sst1 (Table 4, human); 1.37 at Somatostatin sst4 (Table 4, human); 1.3 at Somatostatin sst 3 (Table 4, human). The “% inh” value came out at 89% at Somatostatin sst1 (Table 4, human); 89% on Somatostatin sst4 (Table 4, human); 86% at Somatostatin sst 3 (Table 4, human).

Regarding `CN1C(=O)N(Cc2c[nH]c3ccccc23)C2(CCN(C(=O)CCCN)c3cc(Oc4ccccc4)ccc32)C1=O` (stereo not drawn) [C, 7-phenoxy-3,4-dihydro-2H-quinoline-1-(4-amino-butyl-1-one)-4-spiro-5′-1′-(1H-indol-3-ylmethyl)-3′-methyl-imidazoline-2′,4′-dione], the “% inh” value amounted to 24% on Somatostatin sst1 (Table 4, human); 32% at Somatostatin sst4 (Table 4, human); 25% on Somatostatin sst 3 (Table 4, human).

For `Cc1ccc(Oc2ccc3c(c2)N(CCCCN)CCC32C(=O)N(C)C(=O)N2Cc2c[nH]c3ccccc23)cc1` (stereo not drawn) [D, 7-Tolyloxy-3′-4′-dihydro-2H-quinoline-1-(aminobutan-1yl)-4-spiro-5′-1′-(1H-indol-3-yl-methyl)-3′methyl-imidazolidine-2′4′-dione], on Somatostatin sst1 (Table 4, human), the IC50 is 807 nM, the Ki turned out to be 767 nM, the nH came out at 0.654 and the inhibition at 10 µM was determined as 84%. At Somatostatin sst4 (Table 4, human), the concentration for half-maximal inhibition (IC50) was 5130 nM, the inhibitory constant (Ki) was 4510 nM, the nH came to 1.15 and the inhibition at 10 µM was determined as 68%. At Somatostatin sst 3 (Table 4, human), this compound came in with an IC50 of 7.05 µM, a Ki of 6.26 µM, a nH of 2.34 and an inhibition at 10 µM of 68%.

Regarding `Cc1ccc(Oc2ccc3c(c2)N(CCCCN)CCC32C(=O)N(CCc3c[nH]c4ccccc34)C(=O)N2C)cc1C` (stereo not drawn) [I], on Somatostatin sst1 (Table 4, human), the IC50 came out at 3380 nM, the inhibitory constant (Ki) was 3210 nM, the nH came out at 0.598 and the inhibition at 10 µM turned out to be 66%. On Somatostatin sst4 (Table 4, human), this compound registered a concentration for half-maximal inhibition (IC50) of 2620 nM, a Ki of 2300 nM, a nH of 1.16 and an inhibition at 10 µM of 71%. Further, on Somatostatin sst 3 (Table 4, human), the 50% inhibitory concentration (IC50) is 7.96 µM, the Ki was determined as 7.06 µM, the nH is recorded as 0.977 and the inhibition at 10 µM was determined as 56%.

With `CN1C(=O)N(CCc2c[nH]c3ccccc23)C(=O)C12CCN(CCCCN)c1cc(O)ccc12` (stereo not drawn) [F], at Somatostatin sst1 (Table 4, human), the IC50 was determined as 1320 nM, the Ki is 1250 nM, the nH came out at 0.992 and the inhibition at 10 µM stood at 87%.

On Somatostatin sst1 (Table 4, human), `CN1C(=O)N(CCc2c[nH]c3ccccc23)C(=O)C12CCN(CCCCN)c1cc(Oc3ccc4c(c3)OCO4)ccc12` (stereo not drawn) [J, 7-(Benzo-[1,3]-dioxol-5-yloxy)-3′-4′-dihydro-2H-quinoline-1-(4-amino-butan-1yl)-4-spiro-5′-1′-methyl-3′[2-(-1H-indol-3-yl)-ethyl]-imidazolidine-2′4′-dione] had an IC50 of 699 nM, a Ki of 664 nM, a nH of 1.28 and an inhibition at 10 µM of 69%. For the same compound, at Somatostatin sst4 (Table 4, human), the half-inhibitory concentration (IC50) came out at 754 nM, affinity was put at a Ki of 663 nM, the nH is listed as 1.25 and the inhibition at 10 µM is 72%. Also, at Somatostatin sst 3 (Table 4, human), the half-maximal inhibitory concentration (IC50) turned out to be 3.71 µM; the affinity, expressed as Ki, was 3.29 µM; the nH was found to be 0.915; the inhibition at 10 µM was found to be 72%. Besides, the activation at 30 µM on Sst5 is -11%. Besides, at Sst5 (guinea pig, read-out: % Ant), the inhibition at 30 µM turned out to be 1%.

Consider Somatostatin-14 [reference compound], for which the nH was 0.628 and 0.747 on Somatostatin sst1 (setting [1]); 1.02 at Somatostatin sst4 (setting [1]); 0.73 and 0.775 at Somatostatin sst 3 (setting [1]).

Consider `CN1C(=O)N(Cc2c[nH]c3ccccc23)C2(CCN(CCCCN)c3cc(Oc4ccccc4)ccc32)C1=O` (stereo not drawn) [Compound B, 7-phenoxy-3,4-dihydro-2H-quinoline-1-(4-butylamine)-4-spiro-5′-1′-(1H-indol-3-ylmethyl)-3′-methyl-imidazolidine-2′,4′-dione], for which the half-maximal inhibitory concentration (IC50) came out at 3250 nM at Somatostatin sst1 and 5.84 µM at Somatostatin sst 3. Further, the inhibitory constant (Ki) at Somatostatin sst1 (Cheng-Prusoff from IC50) was found to be 3090 nM; on Somatostatin sst 3 (Cheng-Prusoff from IC50) it was 5.18 µM. In addition, the nH is given as 0.62 on Somatostatin sst1 (setting [1]); 0.62 at Somatostatin sst1 (Table 4, human); 0.722 on Somatostatin sst 3 (setting [1]); 0.722 at Somatostatin sst 3 (Table 4, human). Also, the inhibition at 10 µM is 57% on Somatostatin sst1 (Table 4, human); 39% at Somatostatin sst4 (Table 4, human); 60% at Somatostatin sst 3 (Table 4, human).

On to `CN1C(=O)N(Cc2c[nH]c3ccccc23)C(=O)C12CCN(C(=O)CCCN)c1cc(Oc3ccccc3)ccc12` (stereo not drawn) [Compound A, 7-phenoxy-3,4-dihydro-2H-quinoline-1-(4-amino-butanonyl)-4-spiro-5′-1′-methyl-3′-(1H-indol-3-ylmethyl)-imidazolidine-2′,4′-dione], for which the 50% inhibitory concentration (IC50) was 6390 nM on Somatostatin sst1, 6000 nM at Somatostatin sst4 and 6.59 µM at Somatostatin sst 3. The Ki on Somatostatin sst1 (Cheng-Prusoff from IC50) stood at 6070 nM; at Somatostatin sst4 (Cheng-Prusoff from IC50) it was 5270 nM; at Somatostatin sst 3 (Cheng-Prusoff from IC50), 5.85 µM. In addition, the nH on Somatostatin sst1 (setting [1]) was determined as 0.433; at Somatostatin sst1 (Table 4, human) it was 0.433; on Somatostatin sst4 (setting [1]) it was 0.504; on Somatostatin sst4 (Table 4, human), 0.504; at Somatostatin sst 3 (setting [1]) it was 0.564; on Somatostatin sst 3 (Table 4, human), 0.564. The inhibition at 10 µM on Somatostatin sst1 (Table 4, human) came out at 54%; on Somatostatin sst4 (Table 4, human), 50%; at Somatostatin sst 3 (Table 4, human) it was 56%. Also, the activation at 30 µM at Sst5 was 61%.

On Somatostatin sst1 (Table 4, human), `Cc1ccc(Oc2ccc3c(c2)N(CCCCN)CCC32C(=O)N(CCc3c[nH]c4ccccc34)C(=O)N2C)cc1` (stereo not drawn) [H, 7-Tolyloxy-3′-4′-dihydro-2H-quinoline-1-(4-amino-butan-1yl)-4-spiro-5′-1′-methyl-3′[2-(1H-indol-3-yl)-ethyl]-imidazolidine-2′4′-dione] returned an IC50 of 1240 nM, an inhibitory constant (Ki) of 1180 nM, a nH of 1.38 and an inhibition at 10 µM of 66%. On Somatostatin sst4 (Table 4, human), this compound came in with an IC50 of 649 nM, a Ki of 570 nM, a nH of 1 and an inhibition at 10 µM of 68%. At Somatostatin sst 3 (Table 4, human), this compound returned an IC50 of 7.58 µM, a Ki of 6.73 µM, a nH of 0.922 and an inhibition at 10 µM of 57%.

Turning to “7-(4-methoxy-phenoxy)-3,4-dihydro-2H-quinoline-1-(4-aminobutyl-1-yl-)-4-spiro-5′-1′-methy-3′-[2-(1H-indol-3-yl-ethyl]-imidazoline-2′4′-dione [G]”, the nH on Somatostatin sst1 (Table 4, human) came out at 0.67; on Somatostatin sst4 (Table 4, human), 0.786; at Somatostatin sst 3 (Table 4, human) it was 0.985. The “% inh” value on Somatostatin sst1 (Table 4, human) turned out to be 64%; at Somatostatin sst4 (Table 4, human) it was 68%; at Somatostatin sst 3 (Table 4, human), 60%.

The record behind these values is patent publication US6872827B2, “Somatostatin analogue compounds” (Chembridge Research Laboratories, Inc., priority 2002, dated 2005).
